AC1.4 data for 32 compounds are collected here from patent US20250296916A1, “BICYCLIC PIPERAZINONES AND THERAPEUTIC USES THEREOF” (Cytokinetics, Inc., priority 2022, published 2025).

This experiment concerns rabbit skeletal myofibrils (approximately 90% fast fibers). As to the kind of experiment: Activation of fast skeletal myofibrils (PUMA coupled-enzyme ATPase assay). The format is biochemical. Conditions: concentration at which the compound increased the enzymatic activity by 40%; calcium at pCa25; PM12 buffer pH 6.8. As to the method: Preparation of fast skeletal myofibrils: Rabbit skeletal myofibrils were prepared based upon the method of Herrmann et al. (Biochem. 32 (28): 7255-7263 (1993). Myofibrils were prepared from rabbit psoas muscle purchased from Pel-Freez Biologicals (Arkansas) within 2 days of ordering, stored on ice. Minced muscle was homogenized in 10 volumes of ice-cold “standard” buffer (50 mM Tris, pH 7.4, 0.1 M KOAc, 5 mM KCl, 2 mM dithiothreitol (DTT), 0.2 mM phenylmethylsulfonyl fluoride (PMSF), 10 μM leupeptin, 5 μM pepstatin, and 0.5 mM sodium azide) containing 5 mM ethylenediaminetetraacetic acid (EDTA) and 0.5% Triton X-100 using an Omni-Macro homogenizer. Myofibrils were recovered by low speed centrifugation (3000 rpm for 10 minutes) and washed 2 times in the Triton X-100 containing buffer to ensure removal of cellular membrane. Following the Triton washes, myofibrils were washed 3 times in “standard” buffer containing 2 mM magnesium acetate. A final wash in assay buffer (12 mM piperazine-1,4-bis(2-ethanesulfonic acid) (PIPES), pH 6.8, 60 mM KCl, 1 mM DTT) was performed and brought to 10% sucrose for flash freezing in liquid nitrogen and storage at −80° C.
Activation of Fast Skeletal Myofibrils: Fast fiber activators were identified by measuring the enzymatic activity of muscle myofibril preparations using the proprietary PUMA (trademark) (see, e.g., U.S. Pat. Nos. 6,410,254, 6,743,599, 7,202,051, and 7,378,254) assay system. Myofibril preparations consisted of rabbit skeletal muscle (approximately 90% fast fibers) that had been mechanically homogenized and washed with a detergent (Triton X-100) to remove cellular membranes. This preparation retained all of the sarcomeric components in a native conformation and the enzymatic activity was still regulated by calcium. Compounds were tested using a myofibril suspension and a level of calcium sufficient to increase enzymatic activity of the myofibrils to 25% of their maximal rate (termed pCa25). Enzymatic activity was tracked via a pyruvate kinase and lactate dehydrogenase-coupled enzyme system. This assay regenerates myosin-produced ADP into ATP by oxidizing NADH, producing an absorbance change at 340 nm. The buffering system was 12 mM PIPES, 2 mM MgCl2, 1 mM DTT at pH 6.8 (PM12 buffer). […] In Table 3, “Example Compound” refers to the compound labeled with the same number in Table 2.
Regarding `CCC[C@H]1C(=O)Nc2ccccc2N1C(=O)c1cc2cccn2cn1` [Compound 70, (S)-3-propyl-4-(pyrrolo[1,2-c]pyrimidine-3-carbonyl)-3,4-dihydroquinoxalin-2(1H)-one], the AC1.4 amounted to 0.46 µM.

`CCC[C@H]1C(=O)Nc2ccccc2N1C(=O)c1cn[nH]c1` [Compound 71, (S)-3-propyl-4-(1H-pyrazole-4-carbonyl)-3,4-dihydroquinoxalin-2(1H)-one]: the AC1.4 came to 0.54 µM.

As for `CC[C@H](C)[C@H]1C(=O)Nc2ccccc2N1C(=O)c1cn[nH]c1` [Compound 72, (S)-3-((S)-sec-butyl)-4-(1H-pyrazole-4-carbonyl)-3,4-dihydroquinoxalin-2(1H)-one], the AC1.4 came out at 0.07 µM.

In the case of `CCC[C@H]1C(=O)Nc2ccccc2N1C(=O)c1cnc2[nH]ncc2c1` [Compound 73, (S)-3-propyl-4-(1H-pyrazolo[3,4-b]pyridine-5-carbonyl)-3,4-dihydroquinoxalin-2(1H)-one], the AC1.4 stood at 0.11 µM.

Regarding `CC[C@H](C)[C@H]1C(=O)Nc2ccccc2N1C(=O)c1ccc(N)nc1` [Compound 74, (S)-4-(6-aminonicotinoyl)-3-((S)-sec-butyl)-3,4-dihydroquinoxalin-2(1H)-one], the AC1.4 came out at 0.08 µM.

`CC[C@H](C)[C@H]1C(=O)Nc2ccccc2N1C(=O)c1ccc(=O)[nH]c1` [Compound 75, (S)-3-((S)-sec-butyl)-4-(6-oxo-1,6-dihydropyridine-3-carbonyl)-3,4-dihydroquinoxalin-2(1H)-one]: the AC1.4 came out at 0.05 µM.

With `CCC[C@H]1C(=O)Nc2ccccc2N1C(=O)c1cnn(C2CC2)c1` [Compound 76, (S)-4-(1-cyclopropyl-1H-pyrazole-4-carbonyl)-3-propyl-3,4-dihydroquinoxalin-2(1H)-one], the AC1.4 stood at 0.47 µM.

With `CC(C)[C@H]1C(=O)Nc2ccccc2N1C(=O)c1cnn(C)c1` [Compound 77, (S)-3-isopropyl-4-(1-methyl-1H-pyrazole-4-carbonyl)-3,4-dihydroquinoxalin-2(1H)-one], the AC1.4 came out at 0.08 µM.

As to `CC[C@H](C)[C@H]1C(=O)Nc2ccccc2N1C(=O)c1cnn(CCO)c1` [Compound 78, (S)-3-((S)-sec-butyl)-4-(1-(2-hydroxyethyl)-1H-pyrazole-4-carbonyl)-3,4-dihydroquinoxalin-2(1H)-one], the AC1.4 amounted to 0.16 µM.

In the case of `CC[C@H](C)[C@H]1C(=O)Nc2ccccc2N1C(=O)c1cc[nH]n1` [Compound 79, (S)-3-((S)-sec-butyl)-4-(1H-pyrazole-3-carbonyl)-3,4-dihydroquinoxalin-2(1H)-one], the AC1.4 was 0.88 µM.

For the compound `CC[C@H](C)[C@H]1C(=O)Nc2ccccc2N1C(=O)c1cnn(CC(N)=O)c1` [Compound 80, 2-(4-((S)-2-((S)-sec-butyl)-3-oxo-1,2,3,4-tetrahydroquinoxaline-1-carbonyl)-1H-pyrazol-1-yl)acetamide], the AC1.4 was 0.63 µM.

As to `CC(C)[C@H]1C(=O)Nc2ccccc2N1C(=O)c1ccc(=O)n(C)c1` [Compound 81, (S)-3-isopropyl-4-(1-methyl-6-oxo-1,6-dihydropyridine-3-carbonyl)-3,4-dihydroquinoxalin-2(1H)-one], the AC1.4 amounted to 0.22 µM.

As to `CC(C)[C@H]1C(=O)Nc2ccccc2N1C(=O)c1ccc(N)nc1` [Compound 82, (S)-4-(6-aminonicotinoyl)-3-isopropyl-3,4-dihydroquinoxalin-2(1H)-one], the AC1.4 was 0.26 µM.

As to `CC(C)[C@H]1C(=O)Nc2ccccc2N1C(=O)c1cnc2[nH]ncc2c1` [Compound 83, (S)-3-isopropyl-4-(1H-pyrazolo[3,4-b]pyridine-5-carbonyl)-3,4-dihydroquinoxalin-2(1H)-one], the AC1.4 was found to be 0.06 µM.

Take `CC(C)[C@H]1C(=O)Nc2ccccc2N1C(=O)c1cnn(C2CC2)c1` [Compound 84, (S)-4-(1-cyclopropyl-1H-pyrazole-4-carbonyl)-3-isopropyl-3,4-dihydroquinoxalin-2(1H)-one]: the AC1.4 was 0.29 µM.

In the case of `CC(C)[C@H]1C(=O)Nc2ccccc2N1C(=O)c1ccc(=O)[nH]c1` [Compound 85, (S)-3-isopropyl-4-(6-oxo-1,6-dihydropyridine-3-carbonyl)-3,4-dihydroquinoxalin-2(1H)-one], the AC1.4 worked out at 0.15 µM.

For the compound `CC(C)[C@H]1C(=O)Nc2ccccc2N1C(=O)c1cn[nH]c1` [Compound 86, (S)-3-isopropyl-4-(1H-pyrazole-4-carbonyl)-3,4-dihydroquinoxalin-2(1H)-one], the AC1.4 came to 0.2 µM.

`CC(C)[C@H]1C(=O)Nc2cccnc2N1C(=O)c1ccc(=O)n(C)c1` [Compound 87, (S)-3-isopropyl-4-(1-methyl-6-oxo-1,6-dihydropyridine-3-carbonyl)-3,4-dihydropyrido[2,3-b]pyrazin-2(1H)-one]: the AC1.4 came to 2.15 µM.

Turning to `CC[C@H](C)[C@H]1C(=O)Nc2cnccc2N1C(=O)c1ccc(=O)[nH]c1` [Compound 90, (S)-2-((S)-sec-butyl)-1-(6-oxo-1,6-dihydropyridine-3-carbonyl)-1,4-dihydropyrido[3,4-b]pyrazin-3(2H)-one], the AC1.4 came out at 0.71 µM.

`CC[C@H](C)[C@H]1C(=O)Nc2cnccc2N1C(=O)c1ccc(=O)n(C)c1` [Compound 91, (S)-2-((S)-sec-butyl)-1-(1-methyl-6-oxo-1,6-dihydropyridine-3-carbonyl)-1,4-dihydropyrido[3,4-b]pyrazin-3(2H)-one]: the AC1.4 came out at 0.72 µM.

As for `CC[C@H](C)[C@H]1C(=O)Nc2cccnc2N1C(=O)c1ccc(=O)n(C)c1` [Compound 92, (S)-3-((S)-sec-Butyl)-4-(1-methyl-6-oxo-1,6-dihydropyridine-3-carbonyl)-3,4-dihydropyrido[2,3-b]pyrazin-2(1H)-one], the AC1.4 worked out at 1.03 µM.

Regarding `CC[C@H](C)[C@H]1C(=O)Nc2cccnc2N1C(=O)c1cnn(C)c1` [Compound 93, (S)-3-((S)-sec-butyl)-4-(1-methyl-1H-pyrazole-4-carbonyl)-3,4-dihydropyrido[2,3-b]pyrazin-2(1H)-one], the AC1.4 is 1.73 µM.

`CC[C@H](C)[C@H]1C(=O)Nc2cncnc2N1C(=O)c1cnn(C)c1` [Compound 94, (S)-7-((S)-sec-butyl)-8-(1-methyl-1H-pyrazole-4-carbonyl)-7,8-dihydropteridin-6(5H)-one]: the AC1.4 came to 1.66 µM.

With `CC[C@H](C)[C@H]1C(=O)Nc2ncccc2N1C(=O)c1cnn(C)c1` [Compound 95, (S)-2-((S)-sec-butyl)-1-(1-methyl-1H-pyrazole-4-carbonyl)-1,4-dihydropyrido[2,3-b]pyrazin-3(2H)-one], the AC1.4 is 0.84 µM.

Regarding `CC(C)C[C@H]1C(=O)Nc2cnccc2N1C(=O)c1cnn(C)c1` [Compound 96, (S)-2-isobutyl-1-(1-methyl-1H-pyrazole-4-carbonyl)-1,4-dihydropyrido[3,4-b]pyrazin-3(2H)-one], the AC1.4 worked out at 0.6 µM.

Turning to `CC[C@H](C)[C@H]1C(=O)Nc2cnccc2N1C(=O)c1ccccc1` [Compound 97, (S)-1-benzoyl-2-((S)-sec-butyl)-1,4-dihydropyrido[3,4-b]pyrazin-3(2H)-one], the AC1.4 worked out at 0.28 µM.

Take `CC[C@H](C)[C@H]1C(=O)Nc2cnccc2N1C(=O)c1cccc(C)c1` [Compound 98, (S)-2-((S)-sec-butyl)-1-(3-methylbenzoyl)-1,4-dihydropyrido[3,4-b]pyrazin-3(2H)-one]: the AC1.4 was 0.13 µM.

Consider `CC[C@H](C)[C@H]1C(=O)Nc2ccccc2N1C(N)=O` [Compound 99, (S)-2-((S)-sec-butyl)-3-oxo-3,4-dihydroquinoxaline-1(2H)-carboxamide], for which the AC1.4 came to 0.87 µM.

Take `CC[C@H](C)[C@H]1C(=O)Nc2c(F)cccc2N1C(N)=O` [Compound 100, (S)-2-((S)-sec-Butyl)-5-fluoro-3-oxo-3,4-dihydroquinoxaline-1(2H)-carboxamide]: the AC1.4 was 1.58 µM.

For the compound `CC[C@H](C)[C@H]1C(=O)Nc2ccccc2N1C(=O)N1CC(O)C1` [Compound 101, (S)-3-((S)-sec-butyl)-4-(3-hydroxyazetidine-1-carbonyl)-3,4-dihydroquinoxalin-2(1H)-one], the AC1.4 was determined as 2.1 µM.

On to `CC[C@H](C)[C@H]1C(=O)Nc2ccccc2N1C(=O)NC` [Compound 102, (S)-2-((S)-sec-butyl)-N-methyl-3-oxo-3,4-dihydroquinoxaline-1(2H)-carboxamide], for which the AC1.4 was 0.94 µM.

For `CCNC(=O)N1c2ccccc2NC(=O)[C@@H]1[C@@H](C)CC` [Compound 103, (S)-2-((S)-sec-butyl)-N-ethyl-3-oxo-3,4-dihydroquinoxaline-1(2H)-carboxamide], the AC1.4 worked out at 0.78 µM.
